Assay results taken from US7368565B2, “Methods for preparation of cytotoxic conjugates of maytansinoids and cell binding agents” (Immunogen Inc., priority 2001, dated 2008).

What was measured:
[1] = system: L1210 cells; details: L1210 cells treated in vivo; untreated control mitotic index 3.2 to 5.8%; cited from earlier work
[2] = system: P388, L1210, and LY5178 murine leukemic cell suspensions; details: in vitro; P388 line the most sensitive; cited from earlier work
[3] = system: human acute lymphoblastic leukemia line CEM; details: in vitro; cited from earlier work
[4] = system: human nasopharyngeal carcinoma cells; details: cited from earlier work
[5] = system: P388 lymphocytic leukemia system; details: in vivo; suggested a high therapeutic index; cited from earlier work
[6] = system: L1210 mouse leukemia system; details: in vivo; cited from earlier work
[7] = system: Lewis lung carcinoma system; details: in vivo; cited from earlier work
[8] = system: B-16 melanocarcinoma system; details: in vivo; cited from earlier work
[9] = more cytotoxic; cited from earlier work
[10] = system: A431 cells constitutively expressing the antigen for huN901 (NCAM/CD56); assay: in vitro cytotoxicity (colony formation) towards antigen-expressing cells; assay type: cell-based, human; details: 5 to 7 days incubation; for IC50: surviving fraction, FIG. 1, read-out: IC50 in killing antigen positive cells
Protocol: The huN901-DM1 conjugates prepared by this new, one step method were evaluated for in vitro cytotoxicity towards antigen-expressing cells as follows. A clone of A431 cells constitutively expressing the antigen for huN901 (NCAM/CD56) were used in this assay. Cells were plated into 6-well tissue-culture treated plates at a density of 2×10^3 cells/well in 2 ml of DMEM medium supplemented with 10% fetal calf serum and penicillin+streptomycin. A huN901-DM1 conjugate or the control huN901 antibody was added to the wells at the time of plating, and the cultures were incubated in a tissue culture incubator at 37° C., 6% CO2, for 5 to 7 days to form colonies not smaller than 25 cells/colony. The plates were then washed with PBS, and then fixed/stained for 30 min at room temperature with 10% formaldehyde/0.2% (w/v) Crystal Violet in PBS. The wells were rinsed 3 times with water, dried by air, and the colonies were counted under a dissection low magnification microscope. The surviving fractions were calculated as the number of colonies in drug-treated well/number of colonies in non-treated well.

COc1cc2cc(c1Cl)N(C)C(=O)C[C@H](OC(=O)[C@H](C)N(C)C(C)=O)[C@]1(C)O[C@H]1[C@H](C)[C@@H]1C[C@@](O)(NC(=O)O1)[C@H](OC)/C=C/C=C(\C)C2 [maytansine]
cells accumulating in mitosis [1]: 67% | doses at which cell suspensions were inhibited [2]: 10^−3 to 10^−1 μg/μl | concentrations at which the line was inhibited [3]: ≥ 10^−7 mg/ml | inhibition of in vitro growth [4]: active inhibitor | dosage range over which tumor growth was inhibited [5]: 50- to 100 fold | inhibitory activity [6]: significant inhibitory activity | inhibitory activity [7]: significant inhibitory activity | inhibitory activity [8]: significant inhibitory activity | cytotoxicity relative to conventional cancer chemotherapeutic agents like methotrexate, daunorubicin, and vincristine [9]: 100 to 1000 fold

B1: huN901-DM1 conjugate (Sephadex G25): huN901 antibody conjugated in one step with maytansinoid 2, Sephadex G25 purified, average 2.08 DM1 per antibody (conjugate, chains of the INN, looked up)
VH: QVQLVESGGGVVQPGRSLRLSCAASGFTFSSFGMHWVRQAPGKGLEWVAYISSGSFTIYYADSVKGRFTISRDNSKNTLYLQMNSLRAEDTAVYYCARMRKGYAMDYWGQGTLVTVSS
VL: DVVMTQSPLSLPVTLGQPASISCRSSQIIIHSDGNTYLEWFQQRPGQSPRRLIYKVSNRFSGVPDRFSGSGSGTDFTLKISRVEAEDVGVYYCFQGSHVPHTFGQGTKVEIK
modifications: DM1 maytansinoid conjugate
notes: huN901 antibody conjugated in one step with maytansinoid 2, Sephadex G25 purified, average 2.08 DM1 per antibody
IC50 [10]: 0.1 nM

B2: huN901-DM1 conjugate (Sephacryl S300): huN901 antibody conjugated in one step with maytansinoid 2, Sephacryl S300 purified, average 1.61 DM1 per antibody (conjugate, chains of the INN, looked up)
VH: B1 VH
VL: B1 VL
modifications: DM1 maytansinoid conjugate
notes: huN901 antibody conjugated in one step with maytansinoid 2, Sephacryl S300 purified, average 1.61 DM1 per antibody
IC50 [10]: 0.1 nM

B3: huN901: control unconjugated antibody whose antigen is NCAM/CD56 (antibody, chains of the INN, looked up, V domains shown)
VH: B1 VH
VL: B1 VL
toxicity to antigen positive cells ([10]; FIG. 1): non-toxic
